# Results: patent US20160367578A1, “METHODS AND COMPOSITIONS FOR ERADICATING LEUKEMIC CELLS” (priority 2013, published 2016)
# Legend:
# [1] = test system: Primary MLL-AF9 LKS acute myeloid leukemia cells; assay: Co-culture viability with enoxolone, leukemia cells (GFP+/7AAD-); type: cell-based; settings: 20 hours, 0, 5, 20, 50, 100 and 200 μM
# Protocol: (§1) Primary MLL-AF9^LKS acute myeloid leukemia cells (red bars) were co-cultured with normal BM mononuclear cells (blue bars). Cells in co-culture were exposed to enoxolone for 20 hours (at 0, 5, 20, 50, 100 and 200 μM) and then cell viability was analyzed by flow cytometry (live leukemia cells=GFP+/7AAD−; live normal cells=GFP−/7AAD−).
# normal bone marrow cells = assay: Co-culture viability with enoxolone, normal bone marrow cells (myeloid vs. non-myeloid); type: cell-based; design: dose or concentration left out as unconfirmed; settings: […] μM, 20 hours
# Protocol: as §1
# Cells in co-culture were exposed to enoxolone for 20 hours (at 0, 5, 20, 50, 100 and 200 μM).
smiles,measurement,setting,value
"CC1(C)[C@@H](O)CC[C@]2(C)[C@H]3C(=O)C=C4[C@@H]5C[C@@](C)(C(=O)O)CC[C@]5(C)CC[C@@]4(C)[C@]3(C)CC[C@@H]12 [enoxolone, 18β-glycyrrhetinic acid]",leukemia cell eradication in co-culture with normal BM mononuclear cells,[1],selective leukemia cell eradication
same,toxicity to normal non-myeloid cells,normal bone marrow cells,toxic to normal non-myeloid cells
